Test results as given in ChEMBL document CHEMBL1926566, “Molecular docking studies of a phlorotannin, dieckol isolated from Ecklonia cava with tyrosinase inhibitory activity” (Bioorg Med Chem, 2012).
pIC50: −log10 of the molar value. Active and inactive are the calls of the source. No cut-off for these calls is given here.

What was measured:
[1] = target: T1, Tyrosinase (Agaricus bisporus) (UniProt O42713); test: (§1) Inhibition of mushroom tyrosinase hydroxylation activity using L-tyrosine as substrate after 30 mins by spectrophotometry
T1 sequence (whole entry): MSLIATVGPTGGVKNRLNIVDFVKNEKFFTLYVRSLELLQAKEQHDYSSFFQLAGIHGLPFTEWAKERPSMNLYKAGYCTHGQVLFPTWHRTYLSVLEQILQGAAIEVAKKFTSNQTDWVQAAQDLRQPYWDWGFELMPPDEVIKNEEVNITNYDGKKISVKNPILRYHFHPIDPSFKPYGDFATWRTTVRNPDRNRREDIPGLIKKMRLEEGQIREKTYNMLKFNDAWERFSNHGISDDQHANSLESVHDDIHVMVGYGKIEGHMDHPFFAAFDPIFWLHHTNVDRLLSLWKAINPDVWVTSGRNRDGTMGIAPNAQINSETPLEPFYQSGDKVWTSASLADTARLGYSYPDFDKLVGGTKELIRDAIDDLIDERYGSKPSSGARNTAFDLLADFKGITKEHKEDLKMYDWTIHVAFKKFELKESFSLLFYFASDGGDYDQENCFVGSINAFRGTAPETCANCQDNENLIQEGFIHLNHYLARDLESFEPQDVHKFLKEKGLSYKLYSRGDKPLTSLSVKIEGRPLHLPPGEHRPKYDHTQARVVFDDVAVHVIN

Tyrosinase = target: T2, Tyrosinase (Agaricus bisporus, UniProt O42713); test: as §1
T2 sequence (O42713 whole entry): T1 sequence (whole entry)

[2] = target: T1, Tyrosinase (Agaricus bisporus); test: Inhibition of mushroom tyrosinase hydroxylation activity using L-tyrosine as substrate at 120 uM after 30 mins by spectrophotometry
[3] = target: T1, Tyrosinase (Agaricus bisporus); test: Non-competitive inhibition of mushroom tyrosinase assessed as inhibition of dopachrome formation by Lineweaver-Burk plot analysis
[4] = Cytotoxicity against mouse B16F10 cells assessed as cell viability at 40 to 120 uM after 72 hrs by MTT assay; format: cell-based, B16-F10
[5] = target: T3, Tyrosinase (Mus musculus) (UniProt P11344); test: Inhibition of tyrosinase in alpha-MSH-stimulated mouse B16F10 cells assessed as inhibition of L-DOPA oxidation at 40 to 120 uM after 72 hrs by spectrophotometry; format: cell-based; conditions: B16-F10
T3 sequence (whole entry): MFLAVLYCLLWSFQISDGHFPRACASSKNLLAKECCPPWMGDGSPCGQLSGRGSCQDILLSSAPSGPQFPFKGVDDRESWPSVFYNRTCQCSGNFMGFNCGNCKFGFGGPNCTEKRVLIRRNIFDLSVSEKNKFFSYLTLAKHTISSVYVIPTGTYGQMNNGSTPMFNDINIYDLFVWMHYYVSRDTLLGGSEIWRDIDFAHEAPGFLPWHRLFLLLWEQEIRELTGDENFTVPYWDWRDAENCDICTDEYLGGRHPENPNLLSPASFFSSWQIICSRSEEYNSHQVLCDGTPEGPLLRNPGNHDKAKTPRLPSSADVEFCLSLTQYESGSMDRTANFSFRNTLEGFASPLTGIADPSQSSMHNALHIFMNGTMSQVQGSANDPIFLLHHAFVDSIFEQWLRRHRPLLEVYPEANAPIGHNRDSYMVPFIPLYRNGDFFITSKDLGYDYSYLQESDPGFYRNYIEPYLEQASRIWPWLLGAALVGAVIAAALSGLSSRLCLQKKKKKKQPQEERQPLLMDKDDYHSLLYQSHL

B16-F10 = test: Antimelanogenic activity in mouse B16F10 cells assessed as inhibition of alpha-MSH-induced melanin formation at 40 to 120 uM after 72 hrs by spectrophotometry; format: functional, cell-based

Row | inhibition [1] | pIC50 (Tyrosinase) | inhibition [2] [%] | inhibition [3] | inhibition [5] | SMILES | viability at 72 h, up to 120 µM [4] [%] | Activity (B16-F10)
1 | Dose-dependent effect | 4.70 | 89.3 | Active | Active | Oc1cc(O)cc(Oc2c(O)cc(O)c3c2Oc2c(O)cc(Oc4c(O)cc(Oc5c(O)cc(O)c6c5Oc5c(O)cc(O)cc5O6)cc4O)cc2O3)c1 [DIECKOL] | > 95 | Active
2 | – | – | – | – | Active | OC[C@H]1O[C@@H](Oc2ccc(O)cc2)[C@H](O)[C@@H](O)[C@@H]1O | – | Active
